{"source": "patent US7271239B2", "about": "“D-isomers of antimicrobial peptide” (The Research Foundation of State University of New York, priority 2004, dated 2007)", "key": {"[1]": {"tested_on": "C. albicans DIS", "experiment": "Killing assay in whole human saliva", "settings": "saliva, no peptide", "description": "FIG. 1. Candidacidal activity of MUC7 12-mer-L, MUC7 12-mer-D, Hsn5 12-mer, and Magainin-II in whole human saliva (WHS). Each peptide at final concentration of 25, 50, and 100 μM was incubated with C. albicans (DIS isolate at 1×10^5 cells/ml) and 20 μl of clarified or unclarified saliva (SL; hatched bars), saliva containing Protease inhibitor cocktail (PIC) (SL+PIC; filled bars), or saliva containing ethylenediamine tetraacetic acid (EDTA) (SL+EDTA; clear bars) at 37° C. for 1.5 h. At the end of incubation, the samples were diluted 20-fold and aliquots plated on SDA. The colony forming units (CFU) were counted after 24 h of incubation. The loss of C. albicans viability was determined by the equation (1−CFU of the test group/CFU of the control group)×100%. The data represent three individual trials, and in each trial the sample was duplicated; the error bars represent standard deviation.\nFIG. 4. […] Stimulated whole saliva was collected from 5 healthy subjects. Peptides (50 μM) were incubated with C. albicans cells (1×10^5) in the each individual saliva containing PIC (SL+PIC) at 37° C. for 1.5 hr and the loss of the cell viability was determined. Values represent the mean±S.D. (n=5).\nKilling assays in saliva. Unclarified saliva (unstimulated whole saliva) was collected from five healthy individuals during the fasting. Clarified saliva was obtained by passing the unclarified saliva through the 0.2 μm pore size sterile syringe filter (VWR scientific products, West Chester, Pa.). Candidacidal activity assays were performed as described previously (4), except the phosphate buffer was substituted with saliva. […] Saliva without peptides was a blank control. After incubation at 37° C. for 1.5 h, the reactions were diluted 20-fold in PB and aliquots (50 μl, ˜120 cells) of each sample were plated on SDA. The plates were incubated at 37° C. for 1 day aerobically and the number of colony-forming units (CFUs) was counted. Percentage of killing was calculated as (1−amount of viable cells in the test group)/(amount of viable cells in the control group)×100%."}, "[2]": {"tested_on": "C. albicans strain DIS", "type": "in vivo, mice ICR strain", "description": "A previously described protocol was adopted (14). Mice were immunosuppressed with two subcutaneous injections of prednisolone at a dose of 100 mg/kg body weight 1 day prior to and 3 days after the infection with C. albicans. Tetracycline hydrochloride in drinking water at a concentration of 0.83 mg/ml was given to mice beginning 1 day before infection. Mice were anesthetized by intramuscular injection with 60 μl of 2 mg/ml chlorpromazine chloride, using a dose of 10 mg/kg body weight of mice. While under anesthesia, a small cotton ball soaked in 0.1 ml aliquot of C. albicans cell suspension (2.5×10^6 cells) was used to swab the entire oral cavity of the anesthetized mice.\nVisual evaluation was done by carefully extending the tongue of randomly picked mice using blunt-end forceps, while the mice were under isoflurane sedation. Presence of thick, white curd-like patches indicated candidal infection. At day 3 post-infection, all animals were examined for evidence oral candidal infection by microbiological evaluation. The entire oral cavity of anesthetized mice was swabbed using a sterile calcium alginate disposable swab (Fisher Scientific), dampened with sterile PBS. Cells were then released from the swab into 1 ml PBS. Serial 10-fold dilutions were plated on SDA plates supplemented with streptomycin (30 μg/ml). Plates were incubated for 24 h at 37° C. and yeast cell count expressed as log10 of cfu/ml.\nTongues from sacrificed animals were used for histological studies. They were fixed in 10% formalin and embedded in paraffin. Serial five-μm sections were cut from the paraffin block and stained with periodic acid-Schiff (PAS) reagent for detection of C. albicans.\nMice were randomly divided into various treatment groups with 8 mice per group. Antifungal agents were employed on an equimolar basis, and included amphotericin B (1.75%), clotrimazole (0.66%), MUC7 12-mer (RKSYKCLHKRCR—SEQ ID NO:1) (L; 3%), MUC7 12-mer (D; 3%), MUC7 12-mer (D; 3%) containing Na2EDTA (1 mM), MUC7 12-mer (L; 3%) containing protease inhibitor cocktail (PIC) (1%), and Hsn5 12-mer (AKRHHGYKRKFH—SEQ ID NO:2) (3%). They were all emulsified in Pluronic F127, (20% lipoil), a polymer of polyoxyethylene and polyoxypropylene (non-ionic surfactant). Animals were anesthetized using isoflurane; while sedated, about 30 to 40 μl of the antifungal emulsion was applied on the tongue and spread throughout oral cavity. The treated mice were under sedation for additional 5 min under isoflurane. Animals were not given access to food and water for 1 h following the application.\nFungal burden was re-evaluated quantitatively after 3 and 6 days of treatment, using the same technique as the one used for initial evaluation. Randomly picked mice from each group was subjected to histopathological evaluation, after 6 days of treatment. Blood from randomly sacrificed mice from each treatment group was analyzed for any changes in the serum liver (AST, ALT, ALP etc.) and kidney enzymes (BUN, glucose, creatinine etc) levels.\nStatistical analysis was performed using a significance level set at 0.05 (α) and a significant group size (n=8). Initial infection and antifungal treatment efficacy were determined using analysis of variance (ANOVA), expressed as log10 cfu, and Scheffe's multiple comparison test was used to determine the differences between various treatment groups."}, "[3]": {"settings": "Experimental study I, topical oral application"}}}
{"smiles": "O=C(O)CN(CCN(CC(=O)O)CC(=O)O)CC(=O)O", "note": "[EDTA, ethylenediamine tetraacetic acid]", "values": [{"measurement": "effect of additive alone on C. albicans cell viability", "setting": "[1]", "value": "very little or no effect"}]}
{"smiles": "Clc1ccccc1C(c1ccccc1)(c1ccccc1)n1ccnc1", "note": "[Clotrimazole, 1-[o-chloro-a,a-diphenylbenzyl]-imidazole]", "values": [{"measurement": "Log10 cfu/ml (Mean + S.D.), Initial infection", "setting": "[2]; Experimental study I, day 3 post-infection, before treatment (baseline)", "value": "4.50 ± 0.20", "unit": "Log10 cfu/ml"}, {"measurement": "Log10 cfu/ml (Mean + S.D.), 3-days treatment", "setting": "[2]; [3]", "value": "1.58 ± 1.36", "unit": "Log10 cfu/ml"}, {"measurement": "Log10 cfu/ml (Mean + S.D.), 6-days treatment", "setting": "[2]; [3]", "value": "0.53 ± 0.99", "unit": "Log10 cfu/ml"}, {"measurement": "histopathological finding in tongue sections (C. albicans, PAS staining)", "setting": "[2]; end of treatment", "value": "healthy tissue and absence of visible microorganisms"}]}
